Experimental data as given in patent publication US20240142474A1, “Opsins as Chemosensory Receptors and Related Methods” (The Regents of the University of California, priority 2021, published 2024).
Entries after “also recorded” stand apart in the source; their conditions may differ.

Tests used:
[1] = molecular target: T1, OPN1SW (Mus musculus, UniProt P51491); assay: TANGO assay (beta-arrestin recruitment, luciferase reporter) in HTLA cells, OPN1SW; type: cell-based; conditions: 4 hours
T1 construct: expressed in transfected cells; host or cells: HTLA cells (HEK293 line with tTA-dependent luciferase reporter and beta-arrestin2-TEV fusion)
T1 sequence (P51491 1-346): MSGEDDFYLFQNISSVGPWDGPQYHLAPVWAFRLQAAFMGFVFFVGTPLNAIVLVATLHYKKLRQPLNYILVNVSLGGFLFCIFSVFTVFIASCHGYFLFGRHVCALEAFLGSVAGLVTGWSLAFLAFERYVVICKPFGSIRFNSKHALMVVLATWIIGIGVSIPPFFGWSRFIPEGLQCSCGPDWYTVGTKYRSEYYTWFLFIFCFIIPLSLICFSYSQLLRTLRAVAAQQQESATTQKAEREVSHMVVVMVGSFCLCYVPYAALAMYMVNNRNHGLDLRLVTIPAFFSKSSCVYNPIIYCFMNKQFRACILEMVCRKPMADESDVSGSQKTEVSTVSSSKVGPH
Excerpt: (§1) For example, in one implementation the chemosensory opsin activation detection element comprises a TANGO assay (Transcriptional Activation Following Arrestin Translocation), as known in the art, for example, as described by Kroeze et al., 2015. PRESTO-Tango as an open-source resource for interrogation the druggable human GPCRome. Nat Struct Mol Biol 22, 362-369. In the TANGO systems of the invention, a cell is engineered to express a chemosensory opsin in the form of a fusion protein, wherein the opsin fusion protein comprises an optional membrane trafficking signal (e.g. HA), an optional FLAG tag or like epitope to facilitate detection, and a transcriptional activator which induces the expression of a reporter gene, such as luciferase, wherein the transcriptional activator is joined to an intracellular portion of the opsin, for example, the […], by a cleavage sequence. The cells of the TANGO system are further engineered to express a second fusion protein comprising a beta-arrestin fused to a protease, for example, a TEV protease, wherein the protease is capable of cleaving the fusion protein at the cleavage site. The cells of the TANGO system are further engineered to express a reporter protein, e.g. luciferase, under the control of a transcriptional activator, for example, tetracycline-controlled transactivaor (tTA). Ligand binding to the opsin deployed in the TANGO system triggers a conformational change in the opsin that recruits the beta arrestin-protease fusion protein to the opsin, where proximity of the protease induces cleavage of the transcriptional activator, which trafficks to the nucleus and induces the expression of the reporter gene. The TANGO system advantageously allows direct quantification of opsin activation, independent of g protein activity.
(§2) Human transcriptomics data was mined to identify putative taste receptor proteins. […] However, the role of these opsins in taste perception has not been previously explored. TANGO detection elements employing each of these opsins, in both human and mouse isoforms, were created in HTLA cells (a HEK293 cell line stably expressing a tTA-dependent luciferase reporter and a β-arrestin2-TEV fusion gene), based on protocols in Kroeze et al., 2015. PRESTO-Tango as an open-source resource for interrogation of the druggable human GPCRome. Nat Struct Mol Biol 22, 362-369.
(§3) In the TANGO assay, the mouse opsin coding sequence with an N-terminal FLAG tag was synthesized. The construct was cloned into a TANGO vector (Addgene, Waterton MA) at the ClaI site (FLAG::opsin). The HTLA cells were transfected in a 6-well format with LIPOFECTAMINE 2000™ (Thermo Fisher Scientific, Inc, Waltham MA, USA) according to the manufacturer's instructions. 6-8 hours post transfection cells weret split 1:3 and the media was switched to DMEM+ 2.5% fetal bovine serum (Thermo Fisher Scientific Inc., Waltham MA, USA). Cells were allowed to grow for 48 hours before splitting the cells onto poly-L-lysine-coated 96-well clear, flat bottom white polystyrene plates in serum-free media. The next day, chemical solutions diluted in TANGO assay buffer (20 mM HEPES, 1× HBSS, pH 7.40) were added to the cells. After 4 hours, the medium and drug solutions were removed and replaced with […] per well of BRIGHTGLO™ reagent (Promega Corporation, Madison WI) diluted 20-fold with TANGO assay buffer. Plates were incubated for 20 minutes at room temperature in the dark before measuring luminescence with a plate reader (Molecular Devices, iD3). The normalized response was calculated using following formula: RLU (relative luminescence units)=test compound RLU−average vehicle control RLU.

[2] = molecular target: T2, OPN1SW (Homo sapiens, UniProt P03999); assay: Calcium flux GPCR activation assay with Fluo-8 dye, opsin-expressing HEK293T cells, OPN1SW; type: cell-based; conditions: Fluo-8 calcium flux, data not shown
T2 construct: expressed in transfected cells; host or cells: HEK293T
T2 sequence (P03999 1-345): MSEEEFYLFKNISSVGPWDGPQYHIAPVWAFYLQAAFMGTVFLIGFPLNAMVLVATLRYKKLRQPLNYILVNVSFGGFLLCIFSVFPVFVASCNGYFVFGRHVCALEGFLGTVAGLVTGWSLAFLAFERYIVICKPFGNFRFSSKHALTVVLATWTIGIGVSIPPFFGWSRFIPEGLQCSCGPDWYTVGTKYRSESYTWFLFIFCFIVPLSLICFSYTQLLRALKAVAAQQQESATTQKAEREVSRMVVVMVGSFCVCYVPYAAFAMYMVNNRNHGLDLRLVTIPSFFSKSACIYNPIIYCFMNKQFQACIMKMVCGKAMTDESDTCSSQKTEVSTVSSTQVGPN
Description: (§4) These foregoing TANTO results were further confirmed using a second, a calcium flux GPCR activation assay employing Fluo-8 dye, as follows. For this intracellular Ca^2+ measurement, opsin-expressing HEK293T cells were seeded onto 96-well plates (4×10^4 cells per well) in 100 μl of culture medium with reduced serum contents (0.5% of FBS) per well and incubated overnight under standard culture conditions. [Ca2+]i level was assessed the next day after stimulation with bitter compounds used at a different concentration with the SCREEN QUEST Fluo-8 No Wash Calcium Assay Kit (AAT Bioquest, Inc., Sunnyvale, CA, USA) according to the supplier's protocol. Calcium flux was monitored simultaneously by the change in fluorescence (Ex/Em=490/520 nm) following stimulation and with respect to the background fluorescence. [Ca^2+]i was monitored for a period of three minutes, starting before the addition of compounds to the wells and continuing during measurement of the fluorescent signal following cells' stimulation. The obtained fluorescence reads were normalized to the results obtained after stimulation of the cells with the compound solvent.

[3] = molecular target: T3, OPN3 (Mus musculus, UniProt Q9WUK7); assay: TANGO assay (beta-arrestin recruitment, luciferase reporter) in HTLA cells, OPN3; type: cell-based; conditions: 4 hours
T3 construct: expressed in transfected cells; host or cells: HTLA cells (HEK293 line with tTA-dependent luciferase reporter and beta-arrestin2-TEV fusion)
Excerpt: as §1, §2, §3

[4] = molecular target: T4, OPN3 (Homo sapiens, UniProt Q9H1Y3); assay: Calcium flux GPCR activation assay with Fluo-8 dye, opsin-expressing HEK293T cells, OPN3; type: cell-based; conditions: Fluo-8 calcium flux, data not shown
T4 construct: expressed in transfected cells; host or cells: HEK293T
Description: as §4

[5] = system: OPN3 knockout mice; assay: Mouse brief-access taste assay (lickometer), OPN3 knockout mice compared to wild type; type: in vivo; conditions: water restricted
Description: Knockout mice were obtained for OPN1SW and OPN3. Two independent OPN3 knockout mice lines were tested for reaction to naringin by a mouse taste preference assay. A Lickometer device (MS-160, Di Log Instruments, Inc.,Tallahassee, FL, USA) was used to train mice and then measure their licking responses to different tastants in brief-access trials. On a given trial, each sipper tube was filled with a solution and made available to a mouse via a small port that opened to a metal/plexiglass chamber housing the animal. The mouse chamber of the lickometer was modified for these studies by adding a plexiglass barrier that restricted the free movement of animals to an approximate 10 by 15 cm area facing the fluid access port. A computer running software that communicated with the lickometer recorded tongue contacts with the metal tip of the sipper tube during licking and the time intervals (precision=1 ms) between consecutive licks (inter-lick intervals). The amount of time that the sipper tube was available through the access port could be programmed and was controlled by the opening of a normally closed, computer-actuated shutter. This feature facilitated presentation of solutions to a mouse for only a few seconds to support measurements of brief-access licking behavior. By indexing initial licking responses to stimuli over short periods, brief-access procedures intend to focus on oral sensory influences and avoid any post-ingestive effect. Groups of three to four mice were run in these studies at one time. Groups always included equal numbers of mutant and wild-type mice to control for temporal factors.
Training. Mice were restricted from drinking water for 20-22 hours prior to the onset of training. During training, experimentally naive mice learned to receive fluid in the lickometer over a 3-day period. On the first and second day of training, mice were given 30 minutes free access to a single sipper tube of water to familiarize them with accessing fluid in the lickometer device. Each 30 minute period began when the mouse made its first lick on the sipper tube; mice were allowed 30 minutes to make their first lick. On the third day of training, mice were presented with 10 second presentations (i.e., trials) of water to familiarize them with receiving and consuming fluid under a brief-access procedure in the lickometer. On each trial, the shutter that blocked access to the sipper tube was opened and mice were given 10 seconds to lick, and lick data were recorded by the lickometer computer. […]
Testing. […] For studies, individual Opn3KO, Opn1swKO, Opn4KO, Opn5KO and wild-type mice were evaluated for brief-access licking responses with different agonists. […]

[6] = system: TRPM5 knockout mice; assay: Mouse brief-access taste assay (lickometer), TRPM5 knockout mice compared to wild type; type: in vivo; conditions: TRPM5 knockout (taste blind) mice, water restricted

T3 sequence (Q9WUK7 whole entry, the tested form may be a part): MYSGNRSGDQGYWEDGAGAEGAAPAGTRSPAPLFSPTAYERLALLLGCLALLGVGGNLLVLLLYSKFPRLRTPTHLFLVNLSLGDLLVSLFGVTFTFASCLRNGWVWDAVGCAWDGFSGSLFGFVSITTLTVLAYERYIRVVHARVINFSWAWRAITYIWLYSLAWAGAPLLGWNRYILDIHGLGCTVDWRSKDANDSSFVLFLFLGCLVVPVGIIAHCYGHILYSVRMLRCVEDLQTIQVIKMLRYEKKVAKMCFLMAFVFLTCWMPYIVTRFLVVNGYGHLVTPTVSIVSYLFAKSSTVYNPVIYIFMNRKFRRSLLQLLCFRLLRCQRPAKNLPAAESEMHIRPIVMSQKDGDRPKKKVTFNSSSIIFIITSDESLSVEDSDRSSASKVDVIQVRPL
T4 sequence (Q9H1Y3 whole entry): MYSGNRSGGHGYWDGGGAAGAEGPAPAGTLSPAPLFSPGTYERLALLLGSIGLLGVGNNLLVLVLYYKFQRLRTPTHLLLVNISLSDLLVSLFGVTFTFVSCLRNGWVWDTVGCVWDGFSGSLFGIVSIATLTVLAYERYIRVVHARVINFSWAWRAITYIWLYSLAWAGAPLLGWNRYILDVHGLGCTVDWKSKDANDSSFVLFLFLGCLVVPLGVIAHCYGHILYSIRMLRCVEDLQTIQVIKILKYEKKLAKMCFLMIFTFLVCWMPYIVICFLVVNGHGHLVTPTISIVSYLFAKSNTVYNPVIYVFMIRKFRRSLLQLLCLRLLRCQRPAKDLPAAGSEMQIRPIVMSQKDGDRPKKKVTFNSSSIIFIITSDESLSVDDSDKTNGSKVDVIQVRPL

Row | Compound | activation of OPN1SW, fold-change from baseline luciferase signal vs. log concentration of tastant [1] | activation of calcium dye OPN1SW detection elements [2] | activation of OPN3, fold-change from baseline luciferase signal vs. log concentration of tastant [3] | activation of calcium dye OPN3 detection elements [4] | aversion to the bitter flavor (lick ratio), OPN3 knockout mice compared to wild type mice [5] | aversive response to the bitter flavor (lick ratio), TRPM5 knockout mice [6]
1 | Cn1c(=O)c2[nH]cnc2n(C)c1=O [theophylline] | activation of OPN1SW; also recorded: activated | significantly activated in a concentration dependent manner |  |  |  | 
2 | C[C@@H]1O[C@@H](O[C@H]2[C@H](Oc3cc(O)c4c(c3)O[C@H](c3ccc(O)cc3)CC4=O)O[C@H](CO)[C@@H](O)[C@@H]2O)[C@H](O)[C@H](O)[C@H]1O [naringin] |  |  | activation of OPN3; also recorded: activated; also recorded: potent activator of OPN3 | significantly activated in a concentration dependent manner | reduced aversion | lost the aversive response
